In article PMC8653689, “Phenanthrotriazine Derivatives Containing Arylidine Hydrazone Moieties as Novel Potential c-Met Inhibitors with Anticancer Effect” (Iranian Journal of Pharmaceutical Research : IJPR, 2021):

Assays:
[1] = test system: DU145 prostate cancer cells; set-up: method as in PMID 28431881; conditions: ref [30]; read-out: Antiproliferative activity against DU145 prostate cancer cells IC50; cited from earlier work
A498 renal cancer cells = test system: A498 renal cancer cells; set-up: method as in PMID 30721822, PMID 28431881; conditions: at 10 μM; ref [4], [30]; cited from earlier work
[2] = test system: MGC-803 gastric cancer cells; set-up: method as in PMID 28763643, PMID 24393539; conditions: ref [13], [31]; read-out: Antiproliferative activity against MGC-803 gastric cancer cells IC50; cited from earlier work
MCF7 breast cancer cells = test system: MCF7 breast cancer cells; set-up: method as in PMID 28763643, PMID 24393539; conditions: ref [13], [31]; read-out: Cytotoxic effect against MCF7 breast cancer cells IC50; cited from earlier work
[3] = test system: MDA-MB435s melanoma cells; set-up: method as in PMID 25470024; conditions: ref [32], [33]; read-out: Cytotoxic effect against MDA-MB435s melanoma cells IC50; cited from earlier work
[4] = test system: MDA-MB-231 breast cancer cells; set-up: method as in PMID 25470024; conditions: ref [32], [33]; read-out: Antiproliferative activity against MDA-MB-231 breast cancer cells IC50; cited from earlier work
[5] = Solubility in aqueous media; type: physicochemical
[6] = test system: HT-29 (human colorectal adenocarcinoma) cells; test: MTT reduction assay, antiproliferative effect, HT-29; type: cell-based; conditions: Homo sapiens, HT-29, 72 h, read-out: HT-29 IC50
Description: (§1) Fetal bovine serum (FBS), phosphate-buffered saline (PBS), RPMI-1640, and trypsin were obtained from Biosera (Ringmer, UK). Penicillin/streptomycin and MTT (3-(4,5-dimethylthiazol-2-yl)-2,5-diphenyltetrazolium bromide) were from Sigma-Aldrich (Saint Louis, MO, USA) and Invitrogen (San Diego, CA, USA), respectively. Dimethyl sulfoxide and doxorubicin were purchased from Merck (Darmstadt, Germany) and EBEWE Pharma (Unterach, Austria), respectively. The cells were acquired from Iranian Biological Resource Center, Tehran, Iran (HT-29 (human colorectal adenocarcinoma), MCF-7 (human breast adenocarcinoma) and Vero (African green monkey kidney) cells) or National Cell Bank of Iran, Pasteur Institute, Tehran, Iran (MOLT-4 (lymphoblastic leukemia) cells).
(§2) MTT reduction assay was employed to assess the viability of cancer cells after being treated with synthesized derivatives as previously described ([34]). The cells were plated in flat-bottom 96-well microplates, at densities of 3 × 10^4 cells/mL (100 μL in each well) and then incubated overnight at 37 °C. Three to four different concentrations of synthesized derivatives (in the range of 1 to 100 μM) were placed in triplicate wells and the plates were incubated for 72 h at 37 °C. […] At the end of the incubation time, 80 μL of the media in each well was replaced with the same amount of growth medium without phenol red containing 0.5 mg/mL of MTT. Cells were further incubated at 37 °C for 4 h and then 80 μL of the solution of each well was removed. The addition of DMSO (200μL) to each well solubilized the formazan crystals formed inside the viable cells after 1-hour incubation followed by 30-minute shaking. The optical absorbance of the final solution was determined at 570 nm using a Bio-Tek multimode plate reader (Synergy HTX). The cell viability was calculated compared to untreated control cells by comparison of absorbance measurements. CurveExpert software (version 1.34 for Windows) was used to determine the IC50 value for each compound. To confirm the results, every experiment was repeated 3 to 5 times.

[7] = test system: MCF-7 (human breast adenocarcinoma) cells; test: MTT reduction assay, antiproliferative effect, MCF-7; type: cell-based; conditions: Homo sapiens, MCF7, 72 h, read-out: MCF-7 IC50, MTT, 72 h incubation
Description: as §1, §2

[8] = test system: MOLT-4 (lymphoblastic leukemia) cells; test: MTT reduction assay, antiproliferative effect, MOLT-4; type: cell-based, human; conditions: Homo sapiens, MOLT-4, 72 h, read-out: MOLT-4 IC50
Description: as §1, §2

[9] = test system: Vero (African green monkey kidney) cells; test: MTT reduction assay, Vero normal cells; type: cell-based; conditions: Chlorocebus sabaeus, Vero, 72 h, read-out: Vero IC50
Description: as §1, §2

MCF-7 cells [10] = test: Cell cycle analysis, propidium iodide/RNase flow cytometric assay; type: cell-based, human; conditions: 48 h
Method: Alterations of the cell cycle were determined by the propidium iodide (PI)-RNase flow cytometric method ([35]). MCF-7 cells were used to determine the percentage of cells in each phase of the cell cycle. In 6-well plates, 2 × 10^5 cells were seeded in each well and incubated at 37 °C for 48 h. Afterward, they were treated for 48 h with derivatives 9g, 9j, 9k and 9l at 10 and 25 μM. The cells were then collected after trypsinization, washed twice with PBS, and fixed by 5 mL ethanol 70% for at least 24 h at -20 °C. After fixation, MCF-7 cells were washed with PBS two times and stained with PI 20 µg/mL and RNase 200 µg/mL for 30 min in the dark at room temperature. A FACS Calibur ﬂow cytometer (BD Biosciences) was used for the assays and 20,000 events were analyzed. The number of cells distributed in sub-G1, G0/G1, S, and G2/M were determined by CellQuest software (BD, USA).
Figure 2 Representative cell cycle histograms of MCF-7 cells treated with synthesized derivatives. Analysis of the percentage of cells in different phases of cell cycle was performed using propidium iodide (PI)-RNase flow cytometric assay. MCF-7 cells were seeded in 6-well microplates and treated with synthesized derivatives for 48 h. The cells were then collected and fixed in 70% ethanol overnight at -20 °C. In the end, the cells were stained with DNA staining solution (PI 20 µg/mL and RNase 200 µg/mL) for 30 min and 20,000 events were analyzed by a FACS Calibur ﬂow cytometer (BD Biosciences). Representative histograms of cells treated with compounds 9g, 9j, 9k and 9l are shown

MCF-7 cells [11] = test: Hoechst 33258 staining, detection of apoptosis; type: cell-based, human; conditions: MCF-7, 72 h treatment, especially at 25 µM
Method: Hoechst 33258 was used as a DNA stain to detect apoptosis in cells. MCF-7 cells were seeded in a 6-well plate at a density of 5 × 10^4 cells/mL (2 mL per well) and incubated for 24 h. The whole medium was removed and different concentrations of test compounds 9g, 9j, 9k, and 9l diluted in 2 mL medium were placed in the different wells and incubated for 72 h. Afterward, the medium was removed again, 1 mL of 4% cold freshly prepared paraformaldehyde (PFA) was added, and cells were incubated for 20 min at room temperature. The cells were then washed 2 times with 1 ml PBS and incubated with 1 mL Hoechst 33258 2.5 µg/mL for 30 min in the dark at room temperature ([36], [37]). In the end, the cells were washed with 1 mL PBS and imaged with a fluorescence microscope.
Figure 3 Detection of apoptosis in MCF-7 cells by Hoechst staining. Hoechst 33258 was used as a DNA stain to detect apoptosis in MCF-7 cells treated with synthesized compounds. The cells were seeded in a 6-well plates and treated with different concentrations of test compounds 9g, 9j, 9k and 9l for 72 h. After removing the whole medium, 4% cold freshly prepared paraformaldehyde (PFA) was added for 20 min at room temperature, the cells were then washed twice with PBS, and incubated with Hoechst 33258 2.5 µg/mL for 30 min at room temperature in the dark. Finally, the cells were washed with PBS again and the plates were imaged with a fluorescence microscope

## O=C1C(=O)c2ccccc2-c2ccccc21 [Compound 1]
[1]
  IC50: 1.5 µM

## O=C1NC(=O)/C(=C/c2ccc(-c3nc4c5ccccc5c5ccccc5c4[nH]3)cc2)S1 [Compound 2]
A498 renal cancer cells
  Growth inhibition in A498 renal cancer cells: 93%

## Sc1nnc2c3ccccc3c3ccccc3c2n1 [Compound 3]
other
  melting point: 122 to 124 °C
[2]
  IC50: 7.6 µM

## O=[N+]([O-])c1cccc(/C=N/Nc2nnc3c(n2)-c2cccc4cccc-3c24)c1 [Compound 4]
MCF7 breast cancer cells
  IC50: 61.9 µM

## CSc1nnc2c3ccccc3c3ccccc3c2n1 [Compound 5]
[3]
  IC50: 120 µM

## Cc1csc(N/N=C/c2ccccc2)n1 [Compound 6]
[4]
  IC50: 3.9 µM

## COc1ccc(C=NNc2nnc3c4ccccc4c4ccccc4c3n2)cc1 [Compound 9c, 3-(2-(4-methoxybenzylidene)hydrazinyl)phenanthro[9,10-e][1,2,4]triazine]
[5]
  Solubility in aqueous media: very low solubility in aqueous media
other
  melting point: 288 to 292 °C

## Oc1ccccc1C=NNc1nnc2c3ccccc3c3ccccc3c2n1 [Compound 9d, 2-((2-(phenanthro[9,10-e][1,2,4]triazin-3-yl)hydrazono)methyl)phenol]
[5]
  Solubility in aqueous media: very low solubility in aqueous media
other
  melting point: 328 to 332 °C

## C(=NNc1nnc2c3ccccc3c3ccccc3c2n1)c1cccs1 [Compound 9l, 3-(2-(thiophene-2-ylmethylene)hydraz-inyl)phenanthro[9,10-e][1,2,4]triazine]
[6]
  IC50: 12.9 ± 3.5 µM
[7]
  IC50: 6.9 ± 0.9 µM
[8]
  IC50: 6.8 ± 0.7 µM
[9]
  IC50: 6.2 ± 3.1 µM
MCF-7 cells [10]; MCF-7, 10 µM
  Percentage of cells in G0/G1: 73.76 ± 0.6
  Percentage of cells in G2/M: 18.50 ± 1.7
  Percentage of cells in S: 6.28 ± 1.0
  Percentage of cells in Sub G1: 1.32 ± 0.3
MCF-7 cells [10]; MCF-7, 25 µM
  Effect on cells in sub-G1 phase: increased the cells in the sub-G1 phase
  Percentage of cells in G0/G1: 72.07 ± 0.9
  Percentage of cells in G2/M: 19.43 ± 0.8
  Percentage of cells in S: 6.75 ± 0.9
  Percentage of cells in Sub G1: 1.56 ± 0.3
MCF-7 cells [10]; MCF-7, 10 and 25 µM
  Effect on number of cells in G0/G1: significantly enhanced the number of cells in the G0/G1
MCF-7 cells [11]
  Apoptosis induction by Hoechst 33258 staining: showed signs of apoptosis
other
  melting point: 228 to 231 °C
